Results from ChEMBL document CHEMBL5625262, “Discovery and first-time disclosure of CVN766, an exquisitely selective orexin 1 receptor antagonist” (Bioorg Med Chem Lett, 2024).

Key:
[1] = target: T1, Orexin receptor type 2 (Homo sapiens) (UniProt O43614); assay: Antagonist activity at human Ox2R overexpressed in rat Chem-1 cells assessed as inhibition of orexin A induced calcium flux at 10 uM preincubated for 15 mins followed by orexin A addition by FLIPR analysis relative to control; format: functional, cell-based
T1 sequence (whole entry): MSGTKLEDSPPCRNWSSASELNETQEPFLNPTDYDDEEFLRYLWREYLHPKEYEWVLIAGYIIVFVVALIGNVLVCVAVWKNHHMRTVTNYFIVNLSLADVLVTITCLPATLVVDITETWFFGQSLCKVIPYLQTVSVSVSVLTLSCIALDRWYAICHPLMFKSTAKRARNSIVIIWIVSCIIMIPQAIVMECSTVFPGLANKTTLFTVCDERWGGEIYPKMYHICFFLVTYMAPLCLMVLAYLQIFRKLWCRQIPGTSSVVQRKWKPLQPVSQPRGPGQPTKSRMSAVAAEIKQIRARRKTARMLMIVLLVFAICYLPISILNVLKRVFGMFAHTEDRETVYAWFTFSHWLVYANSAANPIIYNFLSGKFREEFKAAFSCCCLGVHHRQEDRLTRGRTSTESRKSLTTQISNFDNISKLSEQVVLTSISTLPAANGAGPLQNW

[2] = target: T2, Orexin/Hypocretin receptor type 1 (Homo sapiens, UniProt O43613); assay: Antagonist activity at human Ox1R overexpressed in rat Chem-1 cells assessed as inhibition of orexin A induced calcium flux preincubated for 15 mins followed by orexin A addition by FLIPR analysis; format: functional, cell-based
T2 sequence (O43613 whole entry): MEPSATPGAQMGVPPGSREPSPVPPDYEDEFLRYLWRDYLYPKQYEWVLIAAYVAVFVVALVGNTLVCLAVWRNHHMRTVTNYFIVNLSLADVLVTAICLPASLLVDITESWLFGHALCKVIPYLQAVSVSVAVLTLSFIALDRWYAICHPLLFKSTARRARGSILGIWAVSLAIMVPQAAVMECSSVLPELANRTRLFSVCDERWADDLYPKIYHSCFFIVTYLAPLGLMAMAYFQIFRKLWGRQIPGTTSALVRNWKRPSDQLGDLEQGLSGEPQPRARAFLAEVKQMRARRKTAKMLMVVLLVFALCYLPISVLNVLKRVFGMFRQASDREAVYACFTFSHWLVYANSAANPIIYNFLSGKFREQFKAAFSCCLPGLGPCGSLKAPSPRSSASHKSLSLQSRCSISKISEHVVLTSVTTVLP

Orexin receptor type 2 [3] = target: T3, Orexin receptor type 2 (Homo sapiens, UniProt O43614); assay: Antagonist activity at human Ox2R overexpressed in rat Chem-1 cells assessed as inhibition of orexin A induced calcium flux preincubated for 15 mins followed by orexin A addition by FLIPR analysis; format: functional, cell-based
T3 sequence (O43614 whole entry): T1 sequence (whole entry)

[4] = target: T2, Orexin/Hypocretin receptor type 1; assay: Displacement of 3H-SB-674042 from human Ox1R expressed in CHO cell membranes by liquid scintillation counting method; design: species or system Membrane
[5] = Metabolic stability in rat liver microsomes assessed as intrinsic clearance; format: ADME, Microsome; settings: read-out: CLH
[6] = Metabolic stability in human liver microsomes assessed as intrinsic clearance; format: ADME, Microsome; settings: read-out: CLH
[7] = Metabolic stability in mouse liver microsomes assessed as intrinsic clearance; format: ADME, Microsome; settings: read-out: CLH
[8] = Oral bioavailability in Sprague-Dawley rat; format: ADME, organism-based; settings: in vivo
[9] = In vivo receptor occupancy at Ox1R in Sprague-Dawley rat at 3 mg/kg, po in presence of [3H]-SB-674042 measured for 8 hrs; format: ADME, organism-based
[10] = Oral bioavailability in dog; format: ADME, organism-based, Canis lupus familiaris; settings: in vivo
[11] = Volume of distribution in po or iv dosed Sprague-Dawley rat; format: ADME, organism-based; settings: in vivo
[12] = target: T4, Orexin/Hypocretin receptor type 1 (Homo sapiens) (UniProt O43613); settings: CHO, Membrane, filed as antagonist
T4 sequence (whole entry): T2 sequence (O43613 whole entry)

[13] = Tmax in Sprague-Dawley rat at 3 mg/kg, po measured for 8 hrs; format: ADME, organism-based; settings: in vivo
[14] = Ratio of unbound drug concentration in brain to plasma of po and iv dosed Sprague-Dawley rat; format: ADME, organism-based
[15] = Ratio of drug concentration in brain to plasma of po and iv dosed Sprague-Dawley rat; format: ADME, organism-based
Orexin receptor type 2 [16] = target: T3, Orexin receptor type 2; assay: Binding affinity to Ox2R (unknown origin)
[17] = Clearance in dog; format: ADME, Canis lupus familiaris; settings: in vivo
[18] = Selectivity ratio of pKi for displacement of 3H-SB-674042 from human Ox1R expressed in CHO cell membranes to pKi for Ox2R (unknown origin)

In the case of `CCc1nc(C(F)(F)F)cnc1N[C@@H]1CCC[C@H]1NC(=O)c1ncccc1-n1nccn1`, the inhibition ([1]; filed as antagonist) is reported as 71.4% and the IC50 [2] is reported as 1230 nM.
`Cc1ccc(-n2nccn2)c(C(=O)N[C@H]2CCC[C@@H]2Nc2nc3ccc(F)cc3s2)c1` showed an IC50 (Orexin receptor type 2 [3]) of 2460 nM and an IC50 [2] of 17 nM.
With `O=C(N[C@H]1CCC[C@@H]1Nc1cnc(C(F)(F)F)cn1)c1ccccc1-n1nccn1` the inhibition [1] was 12% and the Ki [4] was 81.3 nM.
For `C[C@]1(Nc2cnc(C(F)(F)F)cn2)CCC[C@@H]1NC(=O)c1ccccc1-n1nccn1`, the inhibition [1] was 25.3% and the IC50 [2] was 6 nM.
Molecule `Cc1ccc(-n2nccn2)c(C(=O)N[C@H]2CCC[C@@H]2Nc2cnc3ccccc3n2)c1` has an inhibition ([1]; filed as antagonist) of 60%, a microsomal CLint [5] of 335 µL/min/mg and a microsomal CLint [6] of 24 µL/min/mg. The microsomal CLint [7] was 442 µL/min/mg and the IC50 [2] was 16 nM.
Molecule `CCc1nc(C(F)(F)F)cnc1N[C@H]1CCC[C@@H]1NC(=O)c1ncccc1-n1nccn1` [CVN-766] has an inhibition [1] of 37.5%, a bioavailability [8] of 18% and an Occ [9] of 79.9%. It also gave a bioavailability [10] of 77%, a Vd [11] of 1.02 L/kg and a T1/2 [12] of 2.2 h. For the same molecule, the microsomal CLint [5] was 13 µL/min/mg, the Tmax [13] was 1 h and the microsomal CLint [6] was < 3 µL/min/mg. For the same molecule, the “K(p,uu,brain)” value [14] was 0.77, the microsomal CLint [7] was < 3 µL/min/mg and the BPR [15] was 0.6. It also gave a Ki [4] of 7.24 nM, a Ki (Orexin receptor type 2 [16]) of 12900 nM and a clearance [17] of 2.2 mL/min/kg. The Ratio pKi [18] was > 1000 and the IC50 [2] was 8 nM.
With `Cc1ccc(-n2nccn2)c(C(=O)N2CCN(c3nc4cc(Cl)ccc4o3)CC[C@H]2C)c1` the T1/2 [12] was 1.25 h.
`Cc1nc(C(F)(F)F)cnc1N[C@H]1CCC[C@@H]1NC(=O)c1ncccc1-n1nccn1` gave an inhibition [1] of 11.4% and an IC50 [2] of 32 nM.
For `Cc1nc(C(F)(F)F)cnc1N[C@H]1CCC[C@@H]1NC(=O)c1ccccc1-n1nccn1`, the inhibition [1] was 22%, the Ki [4] was 20.9 nM and the IC50 [2] was 21 nM.
`C[C@]1(Nc2cnc(C(F)(F)F)cn2)CCC[C@@H]1NC(=O)c1ncccc1-n1nccn1` gave an inhibition [1] of 21.1%, a Ki [4] of 18.2 nM and a pKi ([4]; cho) of 7.74. The IC50 [2] was 16 nM.
With `CCc1nc(C(F)(F)F)cnc1N[C@H]1CCC[C@@H]1NC(=O)c1ccccc1-n1nccn1` the inhibition [1] was 25.6%.
Molecule `CC(C)c1cnc(N[C@H]2CCC[C@@H]2NC(=O)c2ccccc2-n2nccn2)cn1` has an inhibition [1] of 12%, a microsomal CLint [5] of 119 µL/min/mg and a microsomal CLint [6] of 23 µL/min/mg. It also gave a microsomal CLint [7] of 403 µL/min/mg.
